Where two headings read alike, the source gives them in different places.
Key:
Assay type in all cases: cell-based
[1] = test system: T47D cells expressing mutant PI3Ka (H1047R); experiment: In vitro cell proliferation, T47D cells (CellTiter-Glo); conditions: inhibition of proliferation, read-out: Avg T-47D EC50
Method: (§1) In Vitro Cell Proliferation: Determination of EC50 Values for Inhibition of Proliferation in T47D Cells Expressing Mutant PI3Ka (H1047R) Mutation and SKBR3 Cells Express WT PI3Ka.
(§2) T47D or SKBR3 cells were trypsinized, resuspended in culture media and seeded onto assay ready plates. T47D culture media consisted of RPMI, 10% FBS and Insulin (0.2 units/mL). SKBR3 culture media consisted of McCoys 5a and 10% FBS. Cells were seeded at a density of 1,500 cells/well and dispensed in 50 μl onto 384 well assay ready plates (Corning, 89089-790). Assay ready plates had previously been stamped with 10-point dilutions of compounds of interest, as well as controls. The Echo655 is used to stamp plates at 40 nL of compound or DMSO. Cells were grown for 72 hours at 37° Celsius and 5% CO2. After 72 hours, cells were equilibrated at room temperature for 15 minutes. 30 μL of CellTiter-Glo reagent is added to the plate, which is then shaken for 30 minutes at temperature at 300-500 rpm. Cells are then read on an Envision plate reader. The percentage of inhibition of proliferation was calculated using the following formula: % Inhibition=100×(LumD−Lumsample)/(LumD−Lumlnh), where D is obtained from cells treated with 0.1% DMSO only; lnh is obtained from cells treated with 10 uM Alpelisib. The effective concentration achieving 50% inhibition of proliferation (EC50) is calculated by fitting the Curve using Xlfit (v5.3.1.3), equation 201: Y=Bottom+(Top−Bottom)/(1+10^((LogEC50−X)*HillSlope)).

[2] = test system: SKBR3 cells express WT PI3Ka; experiment: In vitro cell proliferation, SKBR3 cells (CellTiter-Glo); conditions: inhibition of proliferation
Method: as §1, §2

[3] = test system: phosphorylation of AKT (pAKT) in SKBR3 cells express WT PI3Ka; experiment: In vitro cell pAKT (Ser473) HTRF, SKBR3 cells; conditions: cellular pAKT
Method: (§3) In Vitro Cell pAKT: Determination of IC50 Values for Inhibition of Phosphorylation of AKT (pAKT) in T47D Cells Expressing Mutant PI3Ka (H1047R) Mutation and SKBR3 Cells Express WT PI3Ka.
(§4) T47D or SKBR3 cells were trypsinized, resuspended in culture media and seeded onto assay ready plates. T47D culture media consisted of RPMI, 10% FBS and Insulin (0.2 units/mL). SKBR3 culture media consisted of McCoy's 5a and 10% FBS. Cells were seeded at a density of 5000 cells/well and dispensed in 12.5 μL onto 384 well assay ready plates (Perkin Elmer, 6008238)). Assay ready plates had previously been stamped with 10-point dilutions of compounds of interest, as well as controls. The Echo655 is used to stamp plates at 12.5 nL of compound or DMSO. Cells were grown for 6 hours at 37° Celsius and 5% CO2. After 6 hours, 4 μL of Lysis buffer reagent was added to the plate, which was then centrifuged for 1 minute at 1000 rpm. Then the plate was incubated at room temperature for 30 minutes. After 30 minutes, 4 μL of antibody mix containing Eu Cryptate, d2 Cryptate, and detection buffer, was added to the plate. The plate was centrifuged for 1 minute at 1000 rpm and then incubated overnight at room temperature. The plate was read on an Envision plate reader using the HTRF protocol. The percentage of inhibition of AKT phosphorylation was calculated using the following formula: % Inhibition=100×(pAKTHC−pAKTSample)/(pAKTHC−pAKTLC)), where pAKTHC is obtained from cells treated with 0.1% DMSO only; PAKTLC is obtained from cells treated with 10 uM Alpelisib. The IC50 (concentration achieving 50% inhibition of pAKT) is calculated by fitting the Curve using XIfit (v5.3.1.3), equation 201: Y=Bottom+(Top−Bottom)/(1+10^((LogIC50−X)*HillSlope)).

[4] = test system: phosphorylation of AKT (pAKT) in T47D cells expressing mutant PI3Ka (H1047R); experiment: In vitro cell pAKT (Ser473) HTRF, T47D cells; conditions: cellular pAKT, T47D cells, mutant PI3Ka (H1047R), 6 hours, read-out: Avg T-47D IC50
Method: as §3, §4

Structure (SMILES) | EC50 ([1]; Homo sapiens, T47D, 72 h) [µM] | EC50 ([2]; Homo sapiens, SK-BR-3, 72 h) [µM] | IC50 ([3]; Homo sapiens, SK-BR-3, 6 h) [µM] | IC50 ([4]; Homo sapiens, T47D, 6 h) [µM] | EC50 ([1]; 72 hours) [µM] | EC50 ([2]; 72 hours) [µM] | IC50 ([3]; 6 hours) [µM] | IC50 [4] [µM]
Cc1cc([C@@H](C)Nc2ccccc2C(=O)O)c2cc(N3CCN(C(=O)OC4CC4)CC3)n(C)c(=O)c2c1 [Example 203] | 0.001 to 0.5 | > 15 | > 15 | 0.001 to 0.5 | – | – | – | –
Cc1cc(C(C)Nc2ccccc2C(=O)O)c2cc(N3CCC4(CCN(CC(F)(F)F)CC4)CC3)n(C)c(=O)c2c1 (single isomer, unassigned) [Example 110] | – | – | – | – | 2 to 15 | 2 to 15 | > 15 | > 15
Cc1cc([C@@H](C)Nc2ccccc2C(=O)O)c2cc(C3CC3)n(C)c(=O)c2c1 [Example 43, (R)-2-((1-(3-cyclopropyl-2,7-dimethyl-1-oxo-1,2-dihydroisoquinolin-5-yl)ethyl)amino)benzoic acid] | 0.001 to 0.5 | > 15 | > 15 | 0.001 to 0.5 | – | – | – | –
Cc1cc([C@@H](C)Nc2ccccc2C(=O)O)c2cc(N3CCN(Cc4ccnc(C)n4)CC3)n(C)c(=O)c2c1 [Example 214] | 0.001 to 0.5 | > 15 | > 15 | 0.001 to 0.5 | – | – | – | –
Cc1cc([C@@H](C)Nc2cnsc2C(=O)O)c2cc(N3CCN(CC(F)(F)F)CC3)n(C)c(=O)c2c1 [Example 274] | 2 to 15 | > 15 | > 15 | 2 to 15 | – | – | – | –
COCC1CN(c2cc3c([C@@H](C)Nc4ccccc4C(=O)O)cc(C)cc3c(=O)n2C)C1 [Example 193] | 0.5 to 2 | > 15 | > 15 | 0.001 to 0.5 | – | – | – | –
Cc1cc([C@@H](C)Nc2ccccc2C(=O)O)c2cc(N3CCN(c4cccc(C)n4)CC3)n(C)c(=O)c2c1 [Example 196] | – | – | – | – | 0.001 to 0.5 | > 15 | 2 to 15 | 0.001 to 0.5
COc1ccc(-c2cc3c(C(C)Nc4ccccc4C(=O)O)cc(C)cc3c(=O)n2C)cn1 (single isomer, unassigned) [Example 156] | – | – | – | – | 2 to 15 | > 15 | > 15 | 2 to 15
Cc1cc(C(C)Nc2ccccc2C(=O)O)c2cc(N3Cc4cccc(C(F)(F)F)c4C3)n(C)c(=O)c2c1 (single isomer, unassigned) [Example 92] | – | > 15 | > 15 | – | 0.5 to 2 | – | – | 0.001 to 0.5
Cc1cc([C@@H](C)Nc2ccccc2C(=O)O)c2cc(-c3cnc(OC4CC4)c(F)c3)n(C)c(=O)c2c1 [Example 281] | 0.001 to 0.5 | > 15 | > 15 | 0.001 to 0.5 | – | – | – | –
Cc1cc([C@@H](C)Nc2ccccc2C(=O)O)c2cc(N3CCN(c4cnc(C)s4)CC3)n(C)c(=O)c2c1 [Example 364] | 0.001 to 0.5 | 2 to 15 | 0.5 to 2 | 0.001 to 0.5 | – | – | – | –
Cc1cc([C@@H](C)Nc2ccccc2C(=O)O)c2cc(N3CCC(C)(C#N)C3)n(C)c(=O)c2c1 (stereo partly shown) [Example 243] | 0.001 to 0.5 | > 15 | > 15 | 0.001 to 0.5 | – | – | – | –
Cc1cc([C@@H](C)Nc2ccccc2C(=O)O)c2cc(N3CCn4c(cnc4C(F)(F)F)C3)n(C)c(=O)c2c1 [Example 433] | – | – | – | – | 0.5 to 2 | > 15 | > 15 | 0.001 to 0.5
C[C@@H](Nc1cccc(F)c1C(=O)O)c1cc(F)cc2c(=O)n(C)c(N3CC(F)(F)C3)cc12 [Example 412] | 2 to 15 | > 15 | > 15 | 0.5 to 2 | – | – | – | –
Cc1cc([C@@H](C)Nc2cccc(F)c2C(=O)O)c2cc(N3CCN(c4cncnc4C)CC3)n(C)c(=O)c2c1 [Example 325] | – | – | – | – | 0.001 to 0.5 | 2 to 15 | 2 to 15 | 0.5 to 2
Cc1cc([C@@H](C)Nc2ccccc2C(=O)O)c2cc(N3CCN(c4ccccc4C#N)CC3)n(C)c(=O)c2c1 [Example 197] | 0.001 to 0.5 | > 15 | 2 to 15 | 0.001 to 0.5 | – | – | – | –
C[C@@H](Nc1ccccc1C(=O)O)c1cc(F)cc2c(=O)n(C)c(-c3ccc(OCC(F)(F)F)nc3)c(F)c12 [Example 547] | 0.5 to 2 | > 15 | > 15 | 0.001 to 0.5 | – | – | – | –
Cc1cc([C@@H](C)Nc2ccccc2C(=O)O)c2cc(-c3cnc(C)cc3C)n(C)c(=O)c2c1 [Example 223] | 0.5 to 2 | > 15 | > 15 | 0.001 to 0.5 | – | – | – | –
CC(Nc1ccccc1C(=O)O)c1cc(F)cc2c(=O)n(C)c(-c3cnc(-c4ccc(F)cc4F)c(F)c3)cc12 (stereo not shown) [Example 560] | – | – | – | – | 0.001 to 0.5 | 2 to 15 | > 15 | 0.001 to 0.5
Cc1cc(C(C)Nc2ccccc2C(=O)O)c2cc(N3C[C@H]4CCCC[C@@H]4C3)n(C)c(=O)c2c1 (single isomer, unassigned) [Example 115] | – | – | – | – | 0.001 to 0.5 | > 15 | > 15 | > 15
Cc1cc(C(C)Nc2ccccc2C(=O)O)c2cc(N3CCN(C(=O)OC(C)C)CC3)n(C)c(=O)c2c1 (single isomer, unassigned) [Example 131] | – | – | – | – | 2 to 15 | > 15 | > 15 | > 15
Cc1cc(C(C)Nc2ccccc2C(=O)O)c2cc(-c3ccc(N4CCOCC4)nc3)n(C)c(=O)c2c1 (single isomer, unassigned) [Example 487] | – | – | – | – | 0.001 to 0.5 | 2 to 15 | 2 to 15 | 0.001 to 0.5
CC(=O)N1CCN(c2cc3c(C(C)Nc4ccccc4C(=O)O)cc(C)cc3c(=O)n2C)CC1 (stereo not shown) [Example 54] | 2 to 15 | > 15 | – | – | – | – | – | –
Cc1cc(C(C)Nc2ccccc2C(=O)O)c2cc(C3CCC(C)(C)CC3)n(C)c(=O)c2c1 (single isomer, unassigned) [Example 52] | – | – | – | – | 0.001 to 0.5 | 2 to 15 | – | –
Cc1cc(C(C)Nc2ccccc2C(=O)O)c2cc(N3Cc4ccc(F)cc4C3)n(C)c(=O)c2c1 (single isomer, unassigned) [Example 50] | – | – | – | – | 2 to 15 | > 15 | – | –
Cc1cc(C(C)Nc2ccccc2C(=O)O)c2cc(C3CCC(C)(C)CC3)n(C)c(=O)c2c1 (single isomer, unassigned) [Example 51] | – | – | – | – | 2 to 15 | > 15 | – | –
Cc1cc(C(C)Nc2ccccc2C(=O)O)c2cc(N3C[C@@H]4[C@@H](C#N)[C@@H]4C3)n(C)c(=O)c2c1 (stereo partly drawn) [Example 16, 2-((1-(3-((1R,5S,6r)-6-cyano-3-azabicyclo[3.1.0]hexan-3-yl)-2,7-dimethyl-1-oxo-1,2-dihydroisoquinolin-5-yl)ethyl)amino)benzoic acid] | – | – | – | – | 2 to 15 | – | – | > 15
Cc1cc(C(C)Nc2ccccc2C(=O)O)c2cc(N3CC(c4ccccc4)C3)n(C)c(=O)c2c1 (stereo not shown) [Example 53] | 2 to 15 | > 15 | – | – | – | – | – | –
Cc1ccc(N[C@H](C)c2cc(F)cc3c(=O)n(C)c(C4CC4C4CC4)cc23)c(C(=O)O)n1 (stereo in doubt) [Example 46, -(((R)-1-(3-(trans-[1,1′-bi(cyclopropan)]-2-yl)-7-fluoro-2-methyl-1-oxo-1,2-dihydroisoquinolin-5-yl)ethyl)amino)-6-methylpicolinic acid] | – | – | – | – | 0.5 to 2 | – | > 15 | 0.001 to 0.5
